23 compounds from ChEMBL document CHEMBL5244275, “Geminal Diheteroatomic Motifs: Some Applications of Acetals, Ketals, and Their Sulfur and Nitrogen Homologues in Medicinal Chemistry and Drug Design” (J Med Chem, 2021) can be followed below.

≈ marks a conversion by molar mass, not a printed value. Numbered stars: 1 amine (or outer) side, 2 acyl side, 3 side chain; on linkers, the order of the positions; unused ones are H or OH. Bridge positions count the residues as written; N and C are the ends. Square brackets hold non-standard residues; d marks the D form. Peptide text beside a SMILES is read from it. * marks the point of attachment. Orn(4R-OH,5R-OH) = O=C([C@H](C[C@@H](O)[C@@H](O)N[*:3])N[*:1])[*:2]; Tetradecanoyl(10R,12S-Me2) = CC[C@H](C)C[C@H](C)CCCCCCCCC(=O)*; hTyr(3S-OH,4S-OH) = N[C@H](C(=O)O)[C@H](O)[C@@H](O)c1ccc(O)cc1; Gln(3R-OH) = NC(=O)C[C@@H](O)[C@H](N)C(=O)O; Pro(3S-OH) = O=C(O)[C@H]1NCC[C@@H]1O; Hyp = O=C(O)[C@@H]1C[C@@H](O)CN1

The nature of series [1]: Oral bioavailability in human. The class given is ADME, organism-based. The following applies: in vivo.
Series [2] is described as follows: Aqueous solubility of compound. In kind it is physicochemical. The following applies: aqueous (not further specified).
The next series deals with Hepatitis C virus. As to the kind of experiment: Antiviral activity against Hepatitis C virus genotype 1a harboring NS5A Y93H mutant. The class given is functional, organism-based, Hepacivirus hominis.
The nature of series [3]: Aqueous stability of the compound assessed as acid-catalyzed decomposition by measuring rate constant. In kind it is physicochemical. Conditions: buffer.
For the next series, the system named is Pasteurella multocida. Put plainly: Antibacterial activity against Pasteurella multocida 59A0067 assessed as inhibition of bacterial growth by microdilution method. In kind it is functional.
Another series deals with Escherichia coli. As to the kind of experiment: Antibacterial activity against Escherichia coli 51A0150 assessed as inhibition of bacterial growth by microdilution method. In kind it is functional.
A further series deals with Staphylococcus aureus. As to the kind of experiment: Antibacterial activity against Staphylococcus aureus 01A0785 assessed as inhibition of bacterial growth by microdilution method. In kind it is functional.
Series [4] concerns Plasmodium falciparum. As to the kind of experiment: Antiplasmodial activity against Plasmodium falciparum W2 assessed as inhibition of parasite growth. The class given is functional, organism-based.
Series [5] in a line: Stability of the compound in 0.01 N HCL at pH 2.0 assessed as half-life. In kind it is physicochemical.
The subject of series [6] is Plasmodium falciparum. As to the kind of experiment: Antiplasmodial activity against Plasmodium falciparum FcM29 assessed as inhibition of plasmodial growth. In kind it is functional, organism-based.
The target of series [7] is Human immunodeficiency virus type 1 protease (Human immunodeficiency virus 1, UniProt Q72874). Put plainly: Inhibition of HIV-1 protease.
Series [8] in a line: Oral bioavailability in rat. The class given is ADME, organism-based. Conditions: in vivo.
The nature of series [9]: Cmax in rat plasma at 20 mg/kg, po. Also on record: dose 20 mg/kg, route po. The class given is ADME, organism-based.
Series [10] is described as follows: Inhibition of Leukotriene B4 production in human blood Polymorphonuclear neutrophil cells. In kind it is functional, tissue-based.
Series [11] is described as follows: Stability of the compound in 20% aqueous dioxane solution at 30 degreeC assessed as compound hydrolysis by measuring rate constant. The class given is physicochemical. Conditions: buffer.
Series [12] can be described thus: Stability of the compound in 1M HCL buffer assessed as drug degradation by measuring rate constant by FRET-based assay. In kind it is physicochemical.
Series [13] relates to Human immunodeficiency virus 1. As to the kind of experiment: microbe, parasite or virus in culture. Conditions: Human immunodeficiency virus 1, LAV.
Series [14] has as its system Candida albicans. Put plainly: Antifungal activity against Candida albicans GS. In kind it is functional, organism-based.
Series [15] concerns Candida albicans. Put plainly: Fungicidal activity against Candida albicans. In kind it is functional.
Series [16] is described as follows: Oral bioavailability in dog. In kind it is ADME, organism-based, Canis lupus familiaris. Conditions: in vivo.

The compound `CC(C)[C@H](N)C(=O)OCCOCn1cnc2c(=O)[nH]c(N)nc21` [VALACYCLOVIR] had a bioavailability in series [1] of 54%. In series [2], this compound displayed a solubility of 174 mg/mL (≈ 536000 µM).

With `COC(=O)N[C@H](C(=O)N1CCC[C@H]1c1ncc(-c2ccc3c(c2)CCn2c-3cc3cc(-c4cnc([C@@H]5CCCN5C(=O)[C@@H](NC(=O)OC)C(C)C)[nH]4)ccc32)[nH]1)C(C)C`, the response with Hepatitis C virus was half-maximal at 170 nM (EC50).

As for `COc1ccc(C2OCCS2)cc1` (stereo unspecified), in [3], the K was 0.778 min⁻¹.

As for `CC[C@H]1OC(=O)[C@H](C)[C@@H](O[C@H]2C[C@@](C)(OC)[C@@H](O)[C@H](C)O2)[C@H](C)[C@@H](O[C@@H]2O[C@H](C)C[C@H](N(C)C)[C@H]2O)[C@](C)(O)C[C@@H](C)CN(C)[C@H](C)[C@@H](O)[C@]1(C)O` [AZITHROMYCIN], the minimal inhibitory concentration (MIC) in the series on Pasteurella multocida came to 0.1 µg/mL (≈ 0.134 µM); with Escherichia coli, 1.56 µg/mL (≈ 2.08 µM); in the series on Staphylococcus aureus, 0.2 µg/mL (≈ 0.267 µM).

Take `C[C@@H]1CC[C@H]2[C@@H](C)C(=O)O[C@@H]3O[C@@]4(C)CC[C@@H]1[C@]32OO4` [ARTEMISININ]: the results for the half-inhibitory concentration (IC50) in the series on Plasmodium falciparum [4] and with Plasmodium falciparum [6] were 2.8 nM and 7 nM, respectively. The half-life in series [5] is 24 h.

As to `CC(C)CN(C[C@@H](O)[C@H](Cc1ccccc1)NC(=O)O[C@H]1C2CO[C@H]3OCC1C3C2)S(=O)(=O)c1ccc2oc(NC3CC3)nc2c1` (stereo partly specified), the IC50 in [7] worked out at 0.26 nM.

Compound `N#Cc1cc(-c2ccoc2)c2ccc(OCc3cccc(C4(O)CCOCC4)n3)cc2c1` displayed a bioavailability in series [8] of 26%. This compound also yielded a Cmax in [9] of 2 µM. The same compound displayed a half-inhibitory concentration (IC50) in [10] of 0.6 nM.

Compound `COC(=O)N[C@H](C(=O)N1CCC[C@H]1c1ncc(-c2ccc3c(c2)OCn2c-3cc3cc(-c4cnc([C@@H]5CCCN5C(=O)[C@@H](NC(=O)OC)C(C)C)[nH]4)ccc32)[nH]1)C(C)C` yielded a 50% effective concentration (EC50) in the series with Hepatitis C virus of 5 nM.

With `O=[N+]([O-])c1ccc(C2OCCS2)cc1` (stereo unspecified), in [3], the K was found to be 0.00048 min⁻¹.

`CC(C)(C)NC(=O)[C@@H]1C[C@@H]2CCCC[C@@H]2CN1C[C@@H](O)[C@H](Cc1ccccc1)NC(=O)O[C@H]1CO[C@H]2CCC[C@H]21` showed an IC50 in series [7] of 190 nM.

`Cc1ccc(C2(c3ccc(C)cc3)OCCO2)cc1`: the K in series [11] is on record as 1.7 10^-1/M/s.

Consider `COc1cc(/N=N/c2ccc([N+](=O)[O-])cc2)c(OC)cc1/N=N/c1ccc(N(C)CCCC(=O)NCCSC2CC(=O)N(CCC3OCC(C(=O)NCCCNC(=O)c4ccc(-c5c6ccc(=[N+](C)C)cc-6oc6cc(N(C)C)ccc56)c(C(=O)[O-])c4)CO3)C2=O)cc1` (stereo unspecified), for which, in series [12], the K was 2.28 10^-6/s.

With `CC[C@@H]1C[C@H](O)[C@@H](C)NC[C@H](C)C[C@@]2(C)OC3(CCN(Cc4ccccc4)CC3)O[C@@H]([C@H](C)[C@H]2O[C@@H]2O[C@H](C)C[C@H](N(C)C)[C@H]2O)[C@@H](C)C(=O)O1`, the figures for the minimum inhibitory concentration (MIC) with Pasteurella multocida, with Escherichia coli and in the series on Staphylococcus aureus were 0.03 µg/mL (≈ 0.0418 µM), 0.2 µg/mL (≈ 0.279 µM) and 0.6 µg/mL (≈ 0.836 µM), respectively.

In [1], `Nc1nc(=O)n([C@@H]2CS[C@H](CO)O2)cc1F` [EMTRICITABINE] showed a bioavailability of 60%. This compound also gave an EC50 in series [13] of 8 nM.

Consider `CC[C@H](C)C[C@H](C)CCCCCCCCC(=O)N[C@H]1C[C@@H](O)[C@@H](O)NC(=O)[C@@H]2[C@@H](O)CCN2C(=O)[C@H]([C@H](O)CC(N)=O)NC(=O)[C@H]([C@H](O)[C@@H](O)c2ccc(O)cc2)NC(=O)[C@@H]2C[C@@H](O)CN2C(=O)[C@H]([C@@H](C)O)NC1=O` ({Tetradecanoyl(10R,12S-Me2)}-[Orn(4R-OH,5R-OH)]T[Hyp][hTyr(3S-OH,4S-OH)][Gln(3R-OH)][Pro(3S-OH)]; lactam 1-C), for which the IC50 in the series on Candida albicans [14] stood at 70 nM. In addition, the MFC in the series on Candida albicans [15] turned out to be 0.25 µg/mL (≈ 0.235 µM).

Consider `CC1(C)COC2(CCC(N[C@H]3CC[C@H](Nc4ccnc5cc(Cl)ccc45)CC3)CC2)OO1` (stereo partly specified), for which the concentration for half-maximal inhibition (IC50) in the series with Plasmodium falciparum [6] came to 10 nM.

As to `Clc1ccc(C2(c3ccc(Cl)cc3)OCCO2)cc1`, the K in series [11] is reported as 3.3 10^-3/M/s.

For `Clc1ccc(C2OCCS2)cc1` (stereo unspecified), the K in series [3] was determined as 0.00978 min⁻¹.

On to `CC(C)C1=C[C@H]2OC3(CCC(N[C@H]4CC[C@H](Nc5ccnc6cc(Cl)ccc56)CC4)CC3)OO[C@@]2(C)CC1` (stereo partly specified), for which, in the series with Plasmodium falciparum [6], the IC50 stood at 18 nM.

`O=C1OCc2c1cc1cc(OCc3cccc(C4(O)CC5CCC(C4)O5)c3)ccc1c2-c1ccccc1` (stereo unspecified): the half-inhibitory concentration (IC50) in series [10] stood at 8 nM.

As to `c1ccc(C2OCCS2)cc1` (stereo unspecified), the K in [3] stood at 0.0194 min⁻¹.

Turning to `N#Cc1cc(-c2ccoc2)c2ccc(OCc3cccc(C4(O)CC5COC(C4)O5)n3)cc2c1` (stereo unspecified), the results for the bioavailability in series [16] and in [8] were 73% and 26%, respectively. This compound gave a peak concentration (Cmax) in [9] of 5 µM.

With `COc1cc(/N=N/c2ccc([N+](=O)[O-])cc2)c(OC)cc1/N=N/c1ccc(N(C)CCCC(=O)NCCSC2CC(=O)N(CC3CCC(C(=O)NCCCNC(=O)c4ccc(C(=O)[O-])c(-c5c6ccc(=[N+](C)C)cc-6oc6cc(N(C)C)ccc56)c4)CC3)C2=O)cc1` (stereo unspecified), the K in series [12] is 3.06 10^-7/s.
